Read-outs that look alike come from different tables or passages of the source.
Legend:
Assay type in all cases: cell-based
[1] = molecular target: T1, α7^L131G,Q139L,Y217F-5HT3 V154L, R155Y, W156Q (Homo sapiens, UniProt P36544, L131G/M226I/Q139L/R155Y/T225I/V154L/W156Q/Y217F); assay: EC50 dose response, PSAM4-5HT3 with additional mutations; conditions: read-out: EC50s (SEM) for additional mutations of α7^L131G, Q139L, Y217F -5HT3
T1 construct: expressed in transfected cells; host or cells: HEK 293

[2] = molecular target: T2, α7-5HT3 L131G, Q139L, Y217H (Homo sapiens, UniProt P36544, L131G/M226I/Q139L/T225I/Y217H); assay: EC50 dose response, α7-5HT3 mutant; conditions: read-out: EC50s (SEM) for additional mutations of α7^L131G, Q139L, Y217F -5HT3
T2 construct: expressed in transfected cells; host or cells: HEK 293

[3] = molecular target: T3, α7-5HT3 L131G, Q139L, Y217V (Homo sapiens, UniProt P36544, L131G/M226I/Q139L/T225I/Y217V); assay: EC50 dose response, α7-5HT3 mutant; conditions: read-out: EC50s (SEM) for additional mutations of α7^L131G, Q139L, Y217F -5HT3
T3 construct: 5HT3 ion pore domain (fusion partner); expressed in transfected cells; HEK 293 is named only for the electrophysiology

[4] = molecular target: T4, α7^L131G,Q139L,Y217F-5HT3 H163T, S172V (Homo sapiens, UniProt P36544, H163T/L131G/M226I/Q139L/S172V/T225I/Y217F); assay: EC50 dose response, PSAM4-5HT3 with additional mutations; conditions: read-out: EC50s (SEM) for additional mutations of α7^L131G, Q139L, Y217F -5HT3
T4 construct: expressed in transfected cells; host or cells: HEK 293

[5] = molecular target: T5, α7^L131G,Q139L,Y217F-5HT3 V154I, R155Y, W156N, S172A (Homo sapiens, UniProt P36544, L131G/M226I/Q139L/R155Y/S172A/T225I/V154I/W156N/Y217F); assay: as above; conditions: read-out: EC50s (SEM) for additional mutations of α7^L131G, Q139L, Y217F -5HT3
T5 construct: expressed in transfected cells; host or cells: HEK 293

[6] = molecular target: T6, α7^L131G,Q139L,Y217F-5HT3 S172I (Homo sapiens, UniProt P36544, L131G/M226I/Q139L/S172I/T225I/Y217F); assay: as above; conditions: additional mutation S172I; read-out: EC50s (SEM) for additional mutations of α7^L131G, Q139L, Y217F -5HT3
T6 construct: expressed in transfected cells; host or cells: HEK 293

[7] = molecular target: T7, α7-5HT3 L131G, Q139L, W171Y (Homo sapiens, UniProt P36544, L131G/M226I/Q139L/T225I/W171Y); assay: EC50 dose response, α7-5HT3 mutant; conditions: read-out: EC50s (SEM) for additional mutations of α7^L131G, Q139L, Y217F -5HT3
T7 construct: expressed in transfected cells; host or cells: HEK 293

[8] = molecular target: T8, α7^L131G,Q139L,Y217F-5HT3 S172A (Homo sapiens, UniProt P36544, L131G/M226I/Q139L/S172A/T225I/Y217F); assay: EC50 dose response, PSAM4-5HT3 with additional mutations; conditions: additional mutation S172A; read-out: EC50s (SEM) for additional mutations of α7^L131G, Q139L, Y217F -5HT3
T8 construct: expressed in transfected cells; host or cells: HEK 293

[9] = molecular target: T9, α7-5HT3 L131G, Q139L, Y217N (Homo sapiens, UniProt P36544, L131G/M226I/Q139L/T225I/Y217N); assay: EC50 dose response, α7-5HT3 mutant; conditions: read-out: EC50s (SEM) for additional mutations of α7^L131G, Q139L, Y217F -5HT3
T9 construct: 5HT3 ion pore domain (fusion partner); expressed in transfected cells

[10] = molecular target: T10, α7^L131G,Q139L,Y217F-5HT3 W156N, H163T (Homo sapiens, UniProt P36544, H163T/L131G/M226I/Q139L/T225I/W156N/Y217F); assay: EC50 dose response, PSAM4-5HT3 with additional mutations; conditions: read-out: EC50s (SEM) for additional mutations of α7^L131G, Q139L, Y217F -5HT3
T10 construct: expressed in transfected cells; host or cells: HEK 293

[11] = molecular target: T11, PSAM4-5HT3 (α7-5HT3^L131G,Q139L,Y217F) (Homo sapiens, UniProt P36544, L131G/M226I/Q139L/T225I/Y217F); assay: EC50 dose response of LGIC ligands on PSAM4-5HT3; conditions: read-out: EC50s (SEM) for additional mutations of α7^L131G, Q139L, Y217F -5HT3
T11 construct: expressed in transfected cells; host or cells: HEK 293

[12] = molecular target: T12, α7^L131G,Q139L,Y217F-5HT3 V154I, R155Y, W156N, S172V (Homo sapiens, UniProt P36544, L131G/M226I/Q139L/R155Y/S172V/T225I/V154I/W156N/Y217F); assay: EC50 dose response, PSAM4-5HT3 with additional mutations; conditions: read-out: EC50s (SEM) for additional mutations of α7^L131G, Q139L, Y217F -5HT3
T12 construct: expressed in transfected cells; host or cells: HEK 293

[13] = molecular target: T13, α7^L131G,Q139L,Y217F-5HT3 H163N (Homo sapiens, UniProt P36544, H163N/L131G/M226I/Q139L/T225I/Y217F); assay: as above; conditions: additional mutation H163N; read-out: EC50s (SEM) for additional mutations of α7^L131G, Q139L, Y217F -5HT3
T13 construct: expressed in transfected cells; host or cells: HEK 293

[14] = molecular target: T14, α7^L131G,Q139L,Y217F-5HT3 H163D (Homo sapiens, UniProt P36544, H163D/L131G/M226I/Q139L/T225I/Y217F); assay: as above; conditions: additional mutation H163D; read-out: EC50s (SEM) for additional mutations of α7^L131G, Q139L, Y217F -5HT3
T14 construct: expressed in transfected cells; host or cells: HEK 293

[15] = molecular target: T15, α7^L131G,Q139L,Y217F-5HT3 H163T (Homo sapiens, UniProt P36544, H163T/L131G/M226I/Q139L/T225I/Y217F); assay: as above; conditions: additional mutation H163T; read-out: EC50s (SEM) for additional mutations of α7^L131G, Q139L, Y217F -5HT3
T15 construct: expressed in transfected cells; host or cells: HEK 293

[16] = molecular target: T16, α7^L131G,Q139L,Y217F-5HT3 W156N (Homo sapiens, UniProt P36544, L131G/M226I/Q139L/T225I/W156N/Y217F); assay: cell-based; conditions: additional mutation W156N; read-out: EC50s (SEM) for additional mutations of α7^L131G, Q139L, Y217F -5HT3
T16 construct: expressed in transfected cells; host or cells: HEK 293

[17] = molecular target: T17, α7-5HT3 L131G, Q139L, W171F (Homo sapiens, UniProt P36544, L131G/M226I/Q139L/T225I/W171F); assay: EC50 dose response, α7-5HT3 mutant; conditions: read-out: EC50s (SEM) for additional mutations of α7^L131G, Q139L, Y217F -5HT3
T17 construct: expressed in transfected cells; host or cells: HEK 293

[18] = molecular target: T18, α7^L131G,Q139L,Y217F-5HT3 H163S (Homo sapiens, UniProt P36544, H163S/L131G/M226I/Q139L/T225I/Y217F); assay: EC50 dose response, PSAM4-5HT3 with additional mutations; conditions: additional mutation H163S; read-out: EC50s (SEM) for additional mutations of α7^L131G, Q139L, Y217F -5HT3
T18 construct: expressed in transfected cells; host or cells: HEK 293

[19] = molecular target: T19, α7^L131G,Q139L,Y217F-5HT3 H163A (Homo sapiens, UniProt P36544, H163A/L131G/M226I/Q139L/T225I/Y217F); assay: as above; conditions: additional mutation H163A; read-out: EC50s (SEM) for additional mutations of α7^L131G, Q139L, Y217F -5HT3
T19 construct: expressed in transfected cells; host or cells: HEK 293

[20] = molecular target: T20, α7^L131G,Q139L,Y217F-5HT3 H163R (Homo sapiens, UniProt P36544, H163R/L131G/M226I/Q139L/T225I/Y217F); assay: as above; conditions: additional mutation H163R; read-out: EC50s (SEM) for additional mutations of α7^L131G, Q139L, Y217F -5HT3
T20 construct: expressed in transfected cells; host or cells: HEK 293

[21] = molecular target: T21, α7^L131G,Q139L,Y217F-5HT3 H163F (Homo sapiens, UniProt P36544, H163F/L131G/M226I/Q139L/T225I/Y217F); assay: as above; conditions: additional mutation H163F; read-out: EC50s (SEM) for additional mutations of α7^L131G, Q139L, Y217F -5HT3
T21 construct: expressed in transfected cells; host or cells: HEK 293

[22] = molecular target: T22, α7^L131G,Q139L,Y217F-5HT3 H163T, S172A (Homo sapiens, UniProt P36544, H163T/L131G/M226I/Q139L/S172A/T225I/Y217F); assay: as above; conditions: read-out: EC50s (SEM) for additional mutations of α7^L131G, Q139L, Y217F -5HT3
T22 construct: expressed in transfected cells; host or cells: HEK 293

[23] = molecular target: T23, α7^L131G,Q139L,Y217F-5HT3 H163V (Homo sapiens, UniProt P36544, H163V/L131G/M226I/Q139L/T225I/Y217F); assay: as above; conditions: additional mutation H163V; read-out: EC50s (SEM) for additional mutations of α7^L131G, Q139L, Y217F -5HT3
T23 construct: expressed in transfected cells; host or cells: HEK 293

[24] = molecular target: T24, α7^L131G,Q139L,Y217F-5HT3 H163K (Homo sapiens, UniProt P36544, H163K/L131G/M226I/Q139L/T225I/Y217F); assay: as above; conditions: additional mutation H163K; read-out: EC50s (SEM) for additional mutations of α7^L131G, Q139L, Y217F -5HT3
T24 construct: expressed in transfected cells; host or cells: HEK 293

[25] = molecular target: T25, α7^L131G,Q139L,Y217F-5HT3 S172V (Homo sapiens, UniProt P36544, L131G/M226I/Q139L/S172V/T225I/Y217F); assay: as above; conditions: additional mutation S172V; read-out: EC50s (SEM) for additional mutations of α7^L131G, Q139L, Y217F -5HT3
T25 construct: expressed in transfected cells; host or cells: HEK 293

[26] = molecular target: T26, α7-5HT3 L131G, Q139L, Y217A (Homo sapiens, UniProt P36544, L131G/M226I/Q139L/T225I/Y217A); assay: EC50 dose response, α7-5HT3 mutant; conditions: read-out: EC50s (SEM) for additional mutations of α7^L131G, Q139L, Y217F -5HT3
T26 construct: expressed in transfected cells; host or cells: HEK 293

[27] = molecular target: T27, α7^L131G,Q139L,Y217F-5HT3 V154I, R155Y, W156N (Homo sapiens, UniProt P36544, L131G/M226I/Q139L/R155Y/T225I/V154I/W156N/Y217F); assay: EC50 dose response, PSAM4-5HT3 with additional mutations; conditions: read-out: EC50s (SEM) for additional mutations of α7^L131G, Q139L, Y217F -5HT3
T27 construct: expressed in transfected cells; host or cells: HEK 293

[28] = PSAM4-5HT3 (no additional mutation)
[29] = line L131G, Q139L, Y217F (same values as PSAM4-5HT3 line)

T11 sequence (P36544 with tags, fused parts or gaps L131G/Q139L/Y217F/T225I/M226I limits assumed): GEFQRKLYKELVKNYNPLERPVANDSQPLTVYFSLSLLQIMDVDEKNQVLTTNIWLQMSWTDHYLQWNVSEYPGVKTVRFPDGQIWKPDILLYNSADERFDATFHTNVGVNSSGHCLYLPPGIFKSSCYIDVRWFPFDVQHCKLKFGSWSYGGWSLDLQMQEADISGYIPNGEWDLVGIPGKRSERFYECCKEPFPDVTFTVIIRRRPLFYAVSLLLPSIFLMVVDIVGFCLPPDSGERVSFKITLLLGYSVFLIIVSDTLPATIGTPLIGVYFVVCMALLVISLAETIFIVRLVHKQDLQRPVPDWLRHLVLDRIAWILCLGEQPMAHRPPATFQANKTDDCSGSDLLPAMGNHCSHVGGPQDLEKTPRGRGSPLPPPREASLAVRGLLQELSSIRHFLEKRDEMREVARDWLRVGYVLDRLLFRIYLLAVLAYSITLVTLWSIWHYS
T9 sequence (P36544 with tags, fused parts or gaps L131G/Q139L/Y217N/T225I/M226I limits assumed): as the sequence (P36544 with tags, fused parts or gaps L131G/Q139L/Y217F/T225I/M226I limits assumed) above, with F195N counted along it
T1 sequence (P36544 with tags, fused parts or gaps L131G/Q139L/V154L/R155Y/W156Q/Y217F/T225I/M226I limits assumed): as the sequence (P36544 with tags, fused parts or gaps L131G/Q139L/Y217F/T225I/M226I limits assumed) above, with V132L, R133Y, W134Q counted along it
T8 sequence (P36544 with tags, fused parts or gaps L131G/Q139L/S172A/Y217F/T225I/M226I limits assumed): as the sequence (P36544 with tags, fused parts or gaps L131G/Q139L/Y217F/T225I/M226I limits assumed) above, with S150A counted along it
T23 sequence (P36544 with tags, fused parts or gaps L131G/Q139L/H163V/Y217F/T225I/M226I limits assumed): as the sequence (P36544 with tags, fused parts or gaps L131G/Q139L/Y217F/T225I/M226I limits assumed) above, with H141V counted along it
T4 sequence (P36544 with tags, fused parts or gaps L131G/Q139L/H163T/S172V/Y217F/T225I/M226I limits assumed): as the sequence (P36544 with tags, fused parts or gaps L131G/Q139L/Y217F/T225I/M226I limits assumed) above, with H141T, S150V counted along it
T10 sequence (P36544 with tags, fused parts or gaps L131G/Q139L/W156N/H163T/Y217F/T225I/M226I limits assumed): as the sequence (P36544 with tags, fused parts or gaps L131G/Q139L/Y217F/T225I/M226I limits assumed) above, with W134N, H141T counted along it
T19 sequence (P36544 with tags, fused parts or gaps L131G/Q139L/H163A/Y217F/T225I/M226I limits assumed): as the sequence (P36544 with tags, fused parts or gaps L131G/Q139L/Y217F/T225I/M226I limits assumed) above, with H141A counted along it
T25 sequence (P36544 with tags, fused parts or gaps L131G/Q139L/S172V/Y217F/T225I/M226I limits assumed): as the sequence (P36544 with tags, fused parts or gaps L131G/Q139L/Y217F/T225I/M226I limits assumed) above, with S150V counted along it
T22 sequence (P36544 with tags, fused parts or gaps L131G/Q139L/H163T/S172A/Y217F/T225I/M226I limits assumed): as the sequence (P36544 with tags, fused parts or gaps L131G/Q139L/Y217F/T225I/M226I limits assumed) above, with H141T, S150A counted along it
T18 sequence (P36544 with tags, fused parts or gaps L131G/Q139L/H163S/Y217F/T225I/M226I limits assumed): as the sequence (P36544 with tags, fused parts or gaps L131G/Q139L/Y217F/T225I/M226I limits assumed) above, with H141S counted along it

Compound	EC50 [1] [nM]	EC50 [2] [nM]	EC50 [3] [nM]	EC50 [4] [nM]	EC50 [5] [nM]	EC50 [6] [nM]	EC50 [7] [nM]	EC50 [8] [nM]	EC50 [9] [nM]	EC50 [10] [nM]	EC50 [11, 28] [nM]	EC50 [11, 29] [nM]	EC50 [12] [nM]	EC50 [13] [nM]	EC50 [14] [nM]	EC50 [15] [nM]	EC50 [16] [nM]	EC50 [17] [nM]	EC50 [18] [nM]	EC50 [19] [nM]	also measured
COc1cnc2cc3c(cc2n1)C1CNCC3C1 (stereo not shown) [uPSEM 793]	0.7	0.8	2.4	1.5	4.1	10	> 100	4	> 100	2	1.7	1.7	7.7	2.1	0.3	1.4	0.7	> 100	0.4	0.5	EC50 [20]: 1.5 nM; EC50 [21]: 0.7 nM; EC50 [22]: 2.5 nM; EC50 [23]: 1.5 nM; EC50 [24]: 0.5 nM; EC50 [25]: 2.7 nM; EC50 [26]: 1.2 nM
CCCOc1cnc2cc3c(cc2n1)C1CNCC3C1 (stereo not shown) [uPSEM 817]	17	16	24	6.3	12	18	> 100	7	> 100	13	4.1	4.1	13	9.1	2.5	12	15	> 100	8.1	53	EC50 [20]: 5.5 nM; EC50 [21]: 8.2 nM; EC50 [22]: 7.8 nM; EC50 [23]: 9 nM; EC50 [24]: 10 nM; EC50 [25]: 6 nM; EC50 [26]: 9.2 nM; EC50 [27]: 13 nM

— US20250145687A1, “MODIFIED LIGAND-GATED ION CHANNELS AND METHODS OF USE” (Howard Hughes Medical Institute, priority 2022, published 2025)
